Measurements: patent US20250248979A1, “NOVEL GPX4 INHIBITORS AND USES THEREOF” (THE TRUSTEES OF COLUMBIA UNIVERSITY IN THE CITY OF NEW YORK, priority 2022, published 2025)
Values after ≈ are worked out from the molar mass of the structure shown. Where two headings read alike, the source gives them in different places.

What was measured:
in vitro [1] = assay type: in vitro ADME, human
Procedure: (§1) […]. The incubation timepoints measured were 0, 5, 10, 15, 30, and 45 minutes. All samples were prepared in duplicate and analyzed by LC-MS/MS.

in vitro [2] = assay type: in vitro ADME, mouse
Procedure: as §1

[3] = Kinetic aqueous solubility
GPX4 = molecular target: T1, GPX4 (Homo sapiens, UniProt P36969); experiment: GPX4 activity assay in cell lysates (NADPH-coupled); assay type: biochemical; design: endogenous in cells; host or cells: A-673 cell lysate; conditions: for GPX4% inhibition at 200 (μM) / GPX4 inhibition: 200 μM
T1 sequence (P36969 1-170 isoform P36969-2): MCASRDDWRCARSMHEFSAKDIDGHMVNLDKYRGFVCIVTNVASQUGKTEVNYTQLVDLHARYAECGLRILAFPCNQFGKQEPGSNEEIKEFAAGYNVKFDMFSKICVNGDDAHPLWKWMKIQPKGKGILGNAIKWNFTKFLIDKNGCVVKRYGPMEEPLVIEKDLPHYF
In short: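 Native GPX4 in lysates of A-673 cells grown with 20 nM sodium selenite; lysate preincubated with compound 45 min at 37 °C in pH 8.0 buffer with 3 mM GSH, 0.5 mM NADPH and glutathione reductase. Reaction started with phosphatidylcholine hydroperoxide; NADPH consumption followed at 340 nm over 25 min; triplicates.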

HT-1080 cells = experiment: Cellular dose response assay, HT-1080 with and without Fer-1; assay type: cell-based, human
In short: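 Dose-response over 12 twofold concentrations, 48 h exposure, 0.4% DMSO, in cells seeded at 1500 per well overnight. HT-1080 also run plus Fer-1. Endpoint: CellTiter-Glo luminescence.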

HepG2 cells = experiment: Cellular dose response assay, HepG2; assay type: cell-based, human
Text: (§2) HT-1080 (human [Homo sapiens] […] fibrosarcoma), A-673 (human [Homo sapiens] […] Ewing's sarcoma), and SK-HEP-1 (human [Homo sapiens] […] hepatic adenocarcinoma), cells were obtained from ATCC. Huh7 (human [Homo sapiens] […] hepatocellular carcinoma), HLF (human [Homo sapiens] […] hepatocellular carcinoma), HepG2 (human [Homo sapiens] […] hepatocellular carcinoma), cells were obtained from the Cancer Cell Bank at Columbia University Irving Medical Center. HT-1080, A-673, Huh-7, and HLF cells were grown in Dulbecco's Modified Eagle Medium (DMEM) supplemented with 10% heat inactivated fetal bovine serum (HI-FBS), 1% non-essential amino acids, and 1% penicillin streptomycin. HepG2 and SK-HEP-1 cells were grown in Eagle's Minimum Essential Medium (EMEM) supplemented with 10% HI-FBS, and 1% penicillin-streptomycin. All cells were cultured at 37° C. and 5% CO2.
(§3) HT-1080, HepG2, Huh7, HLF, and SK-HEP-1 cells were seeded into opaque white 384-well plates at 1500 cells per well then incubated at 37° C. with 5% CO2 overnight. The next day, compounds of interest were dissolved in DMSO and 12-point 2-fold dilution series were prepared with and without Fer-1. Cells were treated in triplicate (final DMSO concentration of 0.4% in all wells, including DMSO-only control wells) and incubated for a further 48 hours at 37° C. and 5% CO2. Cell viability was evaluated using CellTiter-Glo (Promega G7573) and luminescence was recorded on a Victor 5 plate reader. Data were analyzed in GraphPad Prism 9 and error bars represent standard deviation values for three technical replicates in a representative experiment.

Huh7 cells = experiment: Cellular dose response assay, Huh7; assay type: cell-based, human; conditions: Table 7
Text: as §2, §3

HLF cells = experiment: Cellular dose response assay, HLF; assay type: cell-based, human; conditions: Table 7
Text: as §2, §3

SK-HEP-1 cells = experiment: Cellular dose response assay, SK-HEP-1; assay type: cell-based, human; conditions: Table 7
Text: as §2, §3

[4] = generation 1, mean ± s.d., n = 3
[5] = 1% DMSO, Phosphate Buffered Saline pH 7.4, 1 hour, ambient, UV/Vis absorbance
[6] = compounds alone, Table 7, read-out: IC50 (uM) HT1080^a
[7] = with fer-1, Table 7, read-out: IC50 (uM) HT1080^b
[8] = compounds alone, Table 7, read-out: IC50 (uM) HEPG2^a
[9] = with fer-1, Table 7, read-out: IC50 (uM) HEPG2^b
[10] = compounds alone, read-out: IC50 (uM) Huh7^a
[11] = with fer-1, read-out: IC50 (uM) Huh7^b
[12] = compounds alone, read-out: IC50 (uM) HLF^a
[13] = with fer-1, read-out: IC50 (uM) HLF^b
[14] = compounds alone, read-out: IC50 (uM) SKHEP1^a
[15] = with fer-1, read-out: IC50 (uM) SKHEP1^b

Row | SMILES | Microsome Stability t1/2 (min) human (in vitro [1]; human, microsomes) [min] | Microsome Stability t1/2 (min) mouse (in vitro [2]; mouse, microsomes) [min] | Solubility ([3]; aqueous solubility, Table 9) [µM] | GPX4% inhibition at 200 (μM) (GPX4; [4]) [%] | IC50 (HT-1080 cells; [6]) [µM] | IC50 (HT-1080 cells; [7]) [µM] | IC50 (HepG2 cells; [8]) [µM] | IC50 (HepG2 cells; [9]) [µM] | IC50 (Huh7 cells; [10]) [µM] | IC50 (Huh7 cells; [11]) [µM] | IC50 (HLF cells; [12]) [µM] | IC50 (HLF cells; [13]) [µM] | IC50 (SK-HEP-1 cells; [14]) [µM] | IC50 (SK-HEP-1 cells; [15]) [µM] | further results
1 | CC(C)(COC(=O)CBr)NC(=O)c1cc2cc([N+](=O)[O-])ccc2[nH]1 [QW-171] | 187 | 283 | 56 (≈ 22.3 µg/mL) | 83.9 ± 16.8 | – | – | – | – | – | – | – | – | – | – | –
2 | Cn1nc(C(=O)NC(C)(C)COC(=O)CCl)c2ccc(-c3cccc(Cl)c3)cc21 [QW-458] | 1.9 | 1.9 | 6.1 (≈ 2.65 µg/mL) | – | – | – | – | – | – | – | – | – | – | – | IC50 (HT-1080 cells; HT1080 + Fer-1, read-out: IC50 (uM) HT1080 + Fer-1): 24 µM; IC50 (HT-1080 cells; HT1080, without Fer-1, read-out: IC50 (uM) HT1080): 2 µM; Selectivity (HT-1080 cells; ferroptosis selectivity, HT1080 + Fer-1 vs HT1080): 12; Solubility [3, 5]: 6.1 µM (≈ 2.65 µg/mL); GPX4% inhibition at 5 μM (GPX4): 80.5 ± 3.0%
3 | CC(C)Oc1ccc(-c2ccc3c(C(=O)NC(C)(C)COC(=O)CCl)nn(C)c3c2)cc1 [QW-506] | 2.9 | 1.7 | 1.7 (≈ 0.779 µg/mL) | – | – | – | – | – | – | – | – | – | – | – | Solubility [3, 5]: 1.7 µM (≈ 0.779 µg/mL); GPX4% inhibition at 5 μM (GPX4): 75.4 ± 3.9%
4 | Cn1nc(C(=O)NC(C)(C)COC(=O)CCl)c2cc(Br)ccc21 [QW-356] | – | – | – | – | 3.1 | 58.3 | 6.7 | 73.5 | 2.5 | 112 | 1.1 | 60.9 | 0.8 | 81 | GPX4 inhibitory activity, result in words (GPX4): significant improvement on GPX4 inhibition over QW-314 and RSL3; GPX4 inhibition (GPX4): complete inhibition; GPX4% inhibition at 200 (μM) (GPX4; generation 2): 105.7 ± 2.5%
5 | C[C@]12CC[C@H]3[C@@H](CCC4=CC(=O)CC[C@@]43C)[C@@H]1CC[C@@H]2O [Testosterone, reference compound] | – | – | – | – | – | – | – | – | – | – | – | – | – | – | half-life (in vitro [1]; pH 7.4, human liver microsomes, read-out: Microsome Stability t1/2 (min) human): 9.5 min; Microsome Stability t1/2 (min) mouse (in vitro [2]; mouse liver microsomes): 5.3 min
6 | COc1ccc(N(C(=O)CCl)C(C(=O)NCCc2ccccc2)c2cccs2)cc1Cl (stereo not drawn) [ML162, reference compound] | – | – | 3.8 (≈ 1.81 µg/mL) | – | – | – | – | – | – | – | – | – | – | – | Microsome Stability t1/2 (min) human (in vitro [1]; human liver microsomes): 0.9 min; Microsome Stability t1/2 (min) mouse (in vitro [2]; mouse liver microsomes): 1.5 min
7 | O=C(Nc1c[nH]c2ccccc12)n1ccnc1 [QW-065] | – | – | – | – | – | – | – | – | – | – | – | – | – | – | IC50 (HT-1080 cells; compounds alone, read-out: IC50 (μM) HT1080^a): > 400 µM; IC50 (HT-1080 cells; compounds and fer-1 1.0 μM, read-out: IC50 (μM) HT1080^b): > 400 µM; IC50 (HepG2 cells; compounds alone, read-out: IC50 (μM) HEPG2^a): > 400 µM; IC50 (HepG2 cells; compounds and fer-1 1.0 μM, read-out: IC50 (μM) HEPG2^b): > 400 µM; GPX4% inhibition at 200 (μM) (GPX4; mean ± s.d., n = 3): 32.4 ± 2.4%
8 | Cn1nc(C(=O)NC(C)(C)COC(=O)CBr)c2ccccc21 [QW-365] | – | – | – | – | 0.7 | 12.2 | 2.9 | 18.6 | 0.8 | 16.8 | 0.5 | 8.8 | 0.3 | 12.1 | GPX4% inhibition at 200 (μM) (GPX4; generation 2): 94.5 ± 4.5%
9 | CC(C)(COC(=O)CCl)NC(=O)c1[nH]c2ccccc2c1Br [QW-348] | – | – | – | 99.6 ± 3.2 | 8.5 | 26 | 7.5 | 27.3 | 4.5 | 32.4 | 4.1 | 27.8 | 3.9 | 32.7 | –
10 | CC(C)(COC(=O)CCl)NC(=O)c1nn(-c2ccccc2)c2ccccc12 [QW-357] | – | – | – | – | 9.1 | 40.1 | 9.2 | 55.7 | 3.5 | 58.7 | 2.9 | 36.4 | 3.8 | 50 | GPX4 inhibition (GPX4): complete inhibition; GPX4% inhibition at 200 (μM) (GPX4; generation 2): 104.8 ± 1.9%
11 | COc1ccc2cc(C(=O)NCC(C)(C)COC(=O)CBr)[nH]c2c1 [QW-303] | – | – | – | 88.7 ± 2.3 | 4 | 6.1 | 4.7 | 12.7 | 6.3 | 16.8 | 2.5 | 5.7 | 5.1 | 17.1 | –
12 | CC(C)(COC(=O)CCl)NC(=O)c1c[nH]c2cc(Br)ccc12 [QW-316] | 24 | 6 | 71 (≈ 27.5 µg/mL) | 87.2 ± 9.2 | – | – | – | – | – | – | – | – | – | – | –
13 | COc1ccc(-c2ccc3c(C(=O)NC(C)(C)COC(=O)CCl)nn(C)c3c2)cc1C [QW-488] | 1.8 | 1.1 | 5.4 (≈ 2.4 µg/mL) | – | – | – | – | – | – | – | – | – | – | – | Solubility [3, 5]: 5.4 µM (≈ 2.4 µg/mL); GPX4% inhibition at 5 μM (GPX4): 87.3 ± 3.3%
14 | Cn1nc(C(=O)NC(C)(C)COC(=O)CCl)c2cccc(OC(=O)CCl)c21 [QW-360] | – | – | – | – | 12.7 | 46.7 | 24.8 | 40.3 | 9.1 | 175 | 6.7 | 27.1 | 3.5 | 44.4 | GPX4 inhibition (GPX4): complete inhibition; GPX4% inhibition at 200 (μM) (GPX4; generation 2): 101.9 ± 1.5%
15 | O=C(CBr)OCCCNC(=O)c1cc2cc(Cl)ccc2[nH]1 [QW-305] | – | – | – | 88.6 ± 3.1 | 1.9 | 5 | 1.9 | 7.2 | 3.8 | 26.1 | 0.7 | 4.3 | 2.3 | 10.9 | –
